These results are taken from article PMC7118115, “Tumor-penetrating peptide for systemic targeting of Tenascin-C” (Scientific Reports, 2020).

Test [1] concerns the target recombinant human Tenascin-C FnIII C domain (TNC-C), hexahistidine-tagged. Put plainly: phage binding to immobilized recombinant protein (cell-free). Conditions: read off a plot.
The target of test [2] is recombinant b1b2 domain of neuropilin-1 (NRP-1). The description is as above. Conditions: read off a plot.
In the next test the test system is U87-MG. The test can be described thus: In vivo play-off phage auditioning, U87-MG tumor. Set-up: species or system human glioblastoma in athymic nude mice. To be noted: phage-displayed peptide; equimolar mix, i.v. 1 × 10^10 pfu/mouse, 2 h circulation, perfusion; Ion-Torrent sequencing; mean, N = 3 mice. The protocol: (§1) Athymic nude mice (Hsd/Athymic Fox1 nu Harlan) were purchased from Envigo (Netherlands) and maintained under standard housing conditions of the Animal Facility of the Institute of Biomedicine and Translational Medicine, University of Tartu (Tartu, Estonia). For orthotropic GBM tumor models, we used NCH421K, P13, and P3 stem cell-like, WT-GBM cells. The individual GBM cells around 2–3 × 10^5 in 3 μL PBS were intracranially implanted into mice brain 2 mm right and 1 mm anterior to the bregma. U87-MG and PC3 subcutaneous models were induced by injecting 2–9 × 10^6 cells in 100 µl PBS subcutaneously into the right flank of 11–15 week old male and female nude mice. All animal experiments were performed in accordance with the procedures approved by the Committee of Animal Experimentation of Estonian Ministry of Agriculture, permits #42 and #48.
(§2) In vivo play-off was used for internally controlled and competitive systemic phage homing studies in mice bearing tumor xenografts. Phages displaying the candidate TNC-C binding peptides and control peptides were individually amplified and purified by precipitation with PEG-8000 (Sigma-Aldrich, St. Louis, MO, USA), followed by […] gradient ultracentrifugation and dialysis. The phages were pooled at equimolar representation (Table 1 for details) and injected iv at 1 × 10^10 pfu (in 200 µl PBS) in tumor-bearing mice, circulated for 2 h, followed by anesthesia and intracardial perfusion with DMEM. The tumors and organs were collected in lysogeny broth (LB) medium containing 1% NP40, and the tissues were homogenized using a hand-held homogenizer. Phages in the tissue lysate were amplified in E.coli, purified by precipitation with PEG-8000, and DNA was extracted using a DNA extraction kit (High Pure PCR Template Preparation Kit; Roche, Basel, Switzerland). Next-generation sequencing of phage genomic DNA with Ion Torrent system (Thermo Fisher Scientific, Waltham, MA, USA) was used to evaluate the representation of each peptide-phage in the input mixture, in tumors and control organs. The FASTQ data from Ion Torrent were processed using a custom python script that identified the barcodes, constant flanking residues, and extracted the reads of the correct length.

For the next test, the system named is P13. Put plainly: In vivo play-off phage auditioning, P13 tumor. On the set-up: species or system P13 glioblastoma in athymic nude mice. Conditions: phage-displayed peptide; equimolar mix, i.v. 1 × 10^10 pfu/mouse, 2 h circulation, perfusion; Ion-Torrent sequencing; mean, N = 3 mice. The protocol: as §1, §2
The next test concerns PC3. Put plainly: In vivo play-off phage auditioning, PC3 tumor. On the set-up: species or system prostate carcinoma in athymic nude mice. To be noted: phage-displayed peptide; equimolar mix, i.v. 1 × 10^10 pfu/mouse, 2 h circulation, perfusion; Ion-Torrent sequencing; mean, N = 3 mice. The protocol: as §1, §2
Another test deals with recombinant TNC-C. Put plainly: Cell-free phage binding to TNC-C. On the set-up: species or system human. Conditions: individual T7 phage clones; Ni-NTA magnetic beads coated with hexahistidine-tagged TNC-C. The protocol: For biopanning on recombinant human TNC-C, we used NNK-encoded CX7C and X7 peptide T7 phage libraries with diversity ~5 × 10^8. Throughout our screens, the selected phages were amplified following plate amplification protocol. The 1st and 4th rounds of biopanning were performed on TNC-C immobilized on Costar 96-Well ELISA plate (#3590, Corning Life Sciences, Tewksbury, MA, USA). Briefly, the multiwell plates were coated with 20 µg/ml recombinant TNC-C in 100 µl of PBS overnight at 4 °C, followed by blocking with 1% bovine serum albumin (BSA) in PBS overnight at 4 °C. The phage library (5 × 10^8 pfu in 100 µl of PBS-BSA) was incubated overnight at 4 °C, followed by 6 washes with PBS containing 1% BSA and 0.1% Tween-20 (washing buffer) to remove background phages, and by phage rescue and amplification in E. coli strain BLT5403 (Novagen, EMD Biosciences, MA, USA)[8]. The subsequent rounds of selection were performed on Ni-NTA Magnetic Agarose Beads (QIAGEN, Hilden, Germany) coated with His-6X tagged TNC-C (30 µg/10 µl beads) at room temperature for 1 h in 400 µl of PBS. The TNC-C beads were washed 3 times with washing buffer, followed by incubation with phages in (5 × 10^8 pfu in 100 µl in washing buffer) at room temperature for 1 h. The background phages were removed by rinsing 6 times with washing buffer, and the bound phages were eluted with 1 ml of PBS containing 500 mM Imidazole and 0.1% NP40.
The eluted phages were titered and amplified for a next round of selection. After 5 rounds of selection, peptide-encoding DNA from a set of 48 phage clones was subjected to Sanger sequencing of peptide-encoding phage DNA[18],[22]. For cell-free binding studies with individual phage clones were incubated with Ni-NTA magnetic beads coated with hexahistidine-tagged TNC-C as above. RPARPAR phage binding to NRP-1-coated beads was used as a positive control. Phage clones displaying heptaglycine peptide (GGGGGGG, G7), or insertless phage clones were used as negative controls. […]
Fig. S13. NRP -1-dependent internalization of PL3 -functionalized AgNPs […]
Supplementary Materials and Methods
Cloning, expression , and purification of TNC-C
Vector Construction. A pF1K (Promega, # FXC00319) derivative plasmid containing full -length cDNA of TNC was used for PCR amplification of cDNA region of TNC-C with Phusion Hot Start II High -Fidelity DNA Polymerase (Thermo Fisher Scientific Inc # F -537L; primer pairs:
5′- CTCCTCT […] -3′ and 5′ -
CAGACA CTCGAG TTATCA TGTAACAATCTC -3′ for domain TNC -C. NdeI and XhoI restriction sites underlined ). The fragments were cloned in the pET28a+ plasmid for TNC -C expression as a n N-terminally His -tagged protein .
Expression and purification of TNC-C. The pET28a+ TNC-C plasmid was used for transformation of E. coli BL21 Rosetta 2 (DE3) pLysS cells (Novagen, #70956). The protein expression was induced by addition of isopropyl β-D-1-thiogalactopyranoside (IPTG) (Sigma, # I6758) to 0.5 mM final concentration and the bacteria were culture d at 18 °C for 16h . Cells were […]
collected by centrifugation, resuspended in ice-cold IMAC buffer (25mM Tris-HCl, 400mM NaCl, 25mM imidazole pH 8, containing EDTA-free protease inhibitor cocktail and DNase I) and lysed by sonification (Bandelin Sonopuls HD 2070, Germany). The cleared bacterial lysate was purified using HiTrap IMAC HP column s (GE Healthcare # 17 -0920-05) on ÄKTA purification system (GE Healthcare ), and the eluate was dialyzed against PBS using 3.5 kDa cut - off 3mL Slide-A-Lyzer Dialysis Cassettes (Thermo Scientific #66330). TNC-C concentration was determined by bicinchoninic acid assay (Thermo Scientific #23227) , and the purity of the proteins was assessed by SDS -PAGE. Mass spectrometry and de novo peptide sequencing were used to confirm the size and sequence of the purified proteins . His-tagged NRP-1 b1b2 domain was expressed and purified as described (Teesalu et al., 2009) .
Single-chain antibodies: The cDNA sequences encoding TNC-C-G11-scFV were retrieved from […]

The next test deals with WT-GBM. The test can be described thus: In vivo play-off phage auditioning, WT-GBM tumor. On the set-up: species or system murine WT-GBM glioblastoma in athymic nude mice. To be noted: phage-displayed peptide; equimolar mix, i.v. 1 × 10^10 pfu/mouse, 2 h circulation, perfusion; Ion-Torrent sequencing; mean, N = 3 mice. The protocol: as §1, §2
For another test, the system named is P3 SCL. Put plainly: In vivo play-off phage auditioning, P3 SCL tumor. Set-up: species or system P3 stem cell-like glioblastoma in athymic nude mice. To be noted: phage-displayed peptide; equimolar mix, i.v. 1 × 10^10 pfu/mouse, 2 h circulation, perfusion; Ion-Torrent sequencing; mean, N = 3 mice. The protocol: as §1, §2
Another test has as its system Norm. brain. The test can be described thus: In vivo play-off phage auditioning, normal brain. Set-up: species or system athymic nude mice. To be noted: phage-displayed peptide; equimolar mix, i.v. 1 × 10^10 pfu/mouse, 2 h circulation, perfusion; Ion-Torrent sequencing; mean, N = 3 mice. The protocol:
as §2

Test [3] concerns the target recombinant human Tenascin-C FnIII C domain (TNC-C), hexahistidine-tagged (human). The test can be described thus: fluorescence polarisation; fluorescence anisotropy saturation binding; 0.66 uM FAM-Cys-PL3 with 0-112 uM NRP1 or 0-275 uM TNC-C; DPBS with 0.1% Pluronic F-127; 24 h at 25 C; non-specific binding with 500 uM Biotin-Ahx-PL3; global fit, single binding site with ligand depletion.

The target in test [4] is recombinant b1b2 domain of neuropilin-1 (NRP-1). The test is described as above.
The target is the same in test [5]. Put plainly: phage binding assay; individual T7 phage clones incubated with Ni-NTA magnetic beads coated with hexahistidine-tagged TNC-C (30 ug/10 ul beads) or NRP-1-coated beads, room temperature 1 h, washing buffer PBS with 1% BSA and 0.1% Tween-20, elution with 500 mM imidazole and 0.1% NP40, phage titered; binding as fold heptaglycine (G7) control phage or percent of parental PL3 phage.

Ends that are not written are not given here.

Turning to “T7 phage displaying PL3 peptide (AGRGRLVR) R8A”, the percent of parent was determined as 26% in [1] and 19% in test [2].
For “T7 phage displaying PL3 peptide (AGRGRLVR) G2A”, the percent of parent in test [1] turned out to be 100%; in [2], 92%.
With “T7 phage displaying PL3 peptide (AGRGRLVR) R3A”, the percent of parent in test [1] came out at 10%.
Turning to “T7 phage displaying PL3 peptide (AGRGRLVR) R5A”, the percent of parent in [1] stood at 49%; in [2], 190%.
The matching figures for “T7 phage displaying PL3 peptide (AGRGRLVR) V7A”: 76% and 180%.
The matching figures for “T7 phage displaying PL3 peptide (AGRGRLVR) G4A”: 90% and 96%.
As to AGRGRLVRAKLAAALE [Clone-5], the “Representation of phage in tumors, U87-MG” value (“Representation … U87-MG” for short) in the test with U87-MG was found to be 0.2 fold G7 control phage. Also, the “Representation of phage in tumors, P13” value in the test on P13 turned out to be 0.1 fold G7 control phage. Further, in the test with PC3, the “Representation of phage in tumors, PC3” value is reported as 0.3 fold G7 control phage. Besides, the “TNC-C binding (fold G7 control phage)” value in the test with recombinant TNC-C is reported as 5785 fold G7 control phage. For the same molecule, the “Representation of phage in tumors, WT-GBM” value (“Representation … WT-GBM” below) with WT-GBM is 23.9 fold G7 control phage. Also, the “Representation of phage in tumors, P3 SCL” value (shortened to “Representation … P3 SCL”) with P3 SCL was determined as 0.4 fold G7 control phage. Also, in the test with Norm. brain, the “Representation of phage in control brain tissue (Norm. brain)” value (“Representation of phage … (Norm. brain)” for short) came to 0.0 fold G7 control phage.
Take RRLVRVA [Clone-35]: the “Representation … U87-MG” value in the test on U87-MG worked out at 0.6 fold G7 control phage. Also, the “Representation of phage in tumors, P13” value with P13 is on record as 0.4 fold G7 control phage. Also, the “Representation of phage in tumors, PC3” value in the test with PC3 is 0.9 fold G7 control phage. The “TNC-C binding (fold G7 control phage)” value in the test with recombinant TNC-C is 1223 fold G7 control phage. The “Representation … WT-GBM” value with WT-GBM turned out to be 1.4 fold G7 control phage. In the test with P3 SCL, the “Representation … P3 SCL” value came out at 0.3 fold G7 control phage. In addition, the “Representation of phage … (Norm. brain)” value in the test with Norm. brain is listed as 0.1 fold G7 control phage.
Turning to RGRLVRA [Clone-45], the “Representation … U87-MG” value with U87-MG is 0.8 fold G7 control phage. Further, in the test on P13, the “Representation of phage in tumors, P13” value stood at 0.4 fold G7 control phage. In the test on PC3, the “Representation of phage in tumors, PC3” value is 1.8 fold G7 control phage. Moreover, the “TNC-C binding (fold G7 control phage)” value in the test on recombinant TNC-C was found to be 737 fold G7 control phage. The “Representation … WT-GBM” value in the test on WT-GBM amounted to 3 fold G7 control phage. For the same molecule, the “Representation … P3 SCL” value in the test with P3 SCL is reported as 0.3 fold G7 control phage. Further, the “Representation of phage … (Norm. brain)” value in the test on Norm. brain was determined as 0.1 fold G7 control phage.
With “T7 phage displaying PL3 peptide (AGRGRLVR) L6A”, the percent of parent in [1] is 34%; in [2], 140%.

B1: FAM-Cys-PL3 fluorescent peptide (peptide)
peptide: CAGRGRLVR
modifications: not fully specified (N-terminus); also: 6-aminohexanoic acid spacer, position not given here
As for B1, the equilibrium dissociation constant (Kd) in test [3] was found to be 51 µM; in test [4], 1.1 µM.

B2: T7 phage displaying PL3 peptide (AGRGRLVR) (peptide)
peptide: AGRGRLVR
On to B2, for which the fold binding over heptaglycine control phage in test [5] amounted to 200 fold.

In general, Kd refers to a measure of binding affinity in units of concentration.
